Measured values from patent publication US10799521B2, “Use of icaritin in preparing medicament for preventing or treating hematocytopenia” (Lunan Pharmaceutical Group Corporation, priority 2013, dated 2020).
Marks after values point to notes of the source that are not given here.

What was measured:
[1] = system: mice receiving 4 Gy of ^60Co radiation; assay: Effect on the number of blood cells in mice receiving 4 Gy of ^60Co radiation; assay type: in vivo, Kunming mice; conditions: 4 Gy ^60Co irradiated mice; ip once a day for 10 days; epimedium extract 3.5 ml/kg/d, icaritin 10 mg/kg/d
Description: Mice in each group, except for the normal group (10 mice), were radiated with 4 Gy of ^60Co by one-time systemic radiation with an absorbed dose of 4 Gy and an absorbed dose rate of 0.88 Gy/min. Blood was sampled at days 3, 7 and 10 after the radiation, respectively, from orbital vein for the whole blood cell count. The mice of which the number of white blood cells was lower than 3.0×10^9/L or the number of platelets was lower than 500×10^9/L in two consecutive whole blood cell counts were excluded, and the remaining mice were used to be tested.
The mice which met the requirements of the experiment after the radiation were randomly divided into the following model control group, epimedium extract group and icaritin group, with 10 animals in each group and half male and half female. Each group was treated or administered as follows.
Group 1, the normal group: administered by intraperitoneal injection with 0.9% normal saline in an administration volume of 10 ml/kg;
Group 2, the model control group: administered by intraperitoneal injection with 0.9% normal saline in an administration volume of 10 ml/kg; […]
Each group was administered once a day for totally 10 days. […] After the test was ended, blood was sampled from abdominal aorta for routine blood test, and the total number of white blood cells and the total number of platelets were determined.

normal mice = assay: Clotting time in normal mice (capillary method); assay type: in vivo, Kunming mice; set-up: unit not given here; conditions: 3 days, 1 h after last administration
Procedure: 100 Kunming mice were randomly divided into 5 groups, i.e. the blank control group (normal saline group), the icariin group (positive control group), the high-dose icaritin group, the medium-dose icaritin group, and the low-dose icaritin group. Each group was administered as follows.
Blank control group: administered with the same volume of normal saline by subcutaneous injection;
Icariin group: administered with 2 mg/kg of icariin by injection;
High-dose icaritin group: administered with the injection of icaritin of Example 1 by subcutaneous injection at a dosage of 10 mg/kg;
Medium-dose icaritin group: administered with the injection of icaritin of Example 1 by subcutaneous injection at a dosage of 5 mg/kg;
Low-dose icaritin group: administered with the injection of icaritin of Example 1 by subcutaneous injection at a dosage of 1 mg/kg.
Measurement of the clotting time: The normal saline group (blank control group), the icariin group (positive control group), and the icaritin administration groups (high-, medium-, and low-dose groups) were designed as follows: 50 mice were selected, weighed and randomly divided into 5 groups, with 10 mice in each group. The animals were administered consecutively for 3 days. At 1 h after the last administration, blood was sampled from the venous plexus by inserting a disposable 20 μl blood collection tube into the inner canthus of the mouse to collect 20 μl of blood. A small fragment of capillary was broken off every 15 s for checking the occurrence of clotting filaments. The time from the blood sampling to the occurrence of fibrous protein filaments (clotting time) was recorded, and the results were shown in Table 5.

chronic ITP model rats = assay: Platelet count in chronic ITP model rats (anti-rat platelet serum); assay type: in vivo, Wistar rats
Procedure: Establishment of chronic ITP model: Wistar rats were selected to establish the model by injecting rabbit anti-rat platelet serum (APS). […] 50 Rats in which the model was successfully established were selected, weighed, and randomly divided into 5 groups, i.e. the model control group, the icariin group (positive control group), and the icaritin administration groups (high-, medium- and low-dose groups), with 10 rats in each group. The groups were administered with the following therapeutic agents, respectively.
The model control group: administered by subcutaneous injection with the same volume of normal saline;
The icariin group: administered by subcutaneous injection with 2 mg/kg of icariin;
The high-dose icaritin group: administered by subcutaneous injection with 10 mg/kg of the icaritin injection of Example 11;
The medium-dose icaritin group: administered by subcutaneous injection with 5 mg/kg of the icaritin injection of Example 11;
The low-dose icaritin group: administered by subcutaneous injection with 1 mg/kg of the icaritin injection of Example 11.
At 1 h after the last administration, blood was sampled from the venous plexus by inserting a disposable 20 μl blood collection tube into the inner canthus of the […].

[2] = system: active immune thrombocytopenia mice; assay: Active immune thrombocytopenia in mice (platelets in peripheral blood); assay type: in vivo, Balb/C mice; conditions: x ± s
Procedure: 72 Balb/C mice were selected, weighed, and randomly divided into […] administration groups, i.e. the normal group, the model control group, the icariin group (positive control group), and the icaritin administration groups (high-, medium-, and low-dose groups), with 12 mice in each group. […] On the second day after the model was established, each group was administered with the following therapeutic agents: The normal group: administered intragastrically with the same volume of normal saline; The model control group: administered intragastrically with the same volume of normal saline; The […]: […]; The high-dose icaritin group: […] Example 9; The medium-dose icaritin group: […] Example 9; The low-dose icaritin group: […] Each of the administration groups was administered once a day and fed normally. After establishing the model three times, each administration group was continued to be administered for one week. The mice were anesthetized, and blood was sampled to measure the number of platelets and determine the effect of icaritin on the number of platelets (PLT) in the peripheral blood.

With `COc1ccc(-c2oc3c(CC=C(C)C)c(O)cc(O)c3c(=O)c2O)cc1` [Icaritin] the Platelets [1] was 596.2 ± 72.5^#$ 10^9/L, the White blood cells [1] was 4.225 ± 0.51^##$ 10^9/L and the “Clotting Time” value (normal mice; high dose 10 mg/kg sc) was 1.96 ± 0.16**^ΔΔ. For the same molecule, the “Clotting Time” value (normal mice; low dose 1 mg/kg sc) was 3.84 ± 0.55, the “Clotting Time” value (normal mice; medium dose 5 mg/kg sc) was 3.04 ± 0.31**^Δ and the Platelet count (chronic ITP model rats; high dose 10 mg/kg sc (injection of Example 11)) was 819.96 ± 61.8**^ΔΔ ×10^9. The Platelet count (chronic ITP model rats; low dose 1 mg/kg sc (injection of Example 11)) was 680.84 ± 50.5 ×10^9, the Platelet count (chronic ITP model rats; medium dose 5 mg/kg sc (injection of Example 11)) was 720.4 ± 60.3**^Δ ×10^9 and the PLT ([2]; high dose 100 mg/kg intragastric (tablets of Example 9)) was 1193.4 ± 95.4 10^9/L. The PLT ([2]; low dose 10 mg/kg intragastric (tablets of Example 9)) was 862.7 ± 75.6 10^9/L and the PLT ([2]; medium dose 50 mg/kg intragastric (tablets of Example 9)) was 983.5 ± 85.7 10^9/L.
